In patent US20240158392A1 (Janssen Biotech, Inc., priority 2021, published 2024):

target: SIK2 (Homo sapiens, UniProt Q9H0K1); experiment: SIK2 Enzymatic Assay High Version 2 (High ATP); format: biochemical; details: enzyme 6 nM, 6 mM ATP and 400 μM HDAC5tide (each 2× final concentration); 30 minutes pre-incubation, 2 hours; ADP-Glo Max luminescence; read-out: SIK2 high ATP IC50 (μM) (Test Example 2)
How it was run: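 At room temperature, enzyme (6 nM, 2× final) was preincubated with compound for 30 min, then 6 mM ATP and 400 μM HDAC5tide (both 2× final) were added for 2 h. ADP formed was measured by ADP-Glo Max (2 h reagent, 1 h detection) using luminescence.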

Chain of SIK2 (Q9H0K1 whole entry, species assumed): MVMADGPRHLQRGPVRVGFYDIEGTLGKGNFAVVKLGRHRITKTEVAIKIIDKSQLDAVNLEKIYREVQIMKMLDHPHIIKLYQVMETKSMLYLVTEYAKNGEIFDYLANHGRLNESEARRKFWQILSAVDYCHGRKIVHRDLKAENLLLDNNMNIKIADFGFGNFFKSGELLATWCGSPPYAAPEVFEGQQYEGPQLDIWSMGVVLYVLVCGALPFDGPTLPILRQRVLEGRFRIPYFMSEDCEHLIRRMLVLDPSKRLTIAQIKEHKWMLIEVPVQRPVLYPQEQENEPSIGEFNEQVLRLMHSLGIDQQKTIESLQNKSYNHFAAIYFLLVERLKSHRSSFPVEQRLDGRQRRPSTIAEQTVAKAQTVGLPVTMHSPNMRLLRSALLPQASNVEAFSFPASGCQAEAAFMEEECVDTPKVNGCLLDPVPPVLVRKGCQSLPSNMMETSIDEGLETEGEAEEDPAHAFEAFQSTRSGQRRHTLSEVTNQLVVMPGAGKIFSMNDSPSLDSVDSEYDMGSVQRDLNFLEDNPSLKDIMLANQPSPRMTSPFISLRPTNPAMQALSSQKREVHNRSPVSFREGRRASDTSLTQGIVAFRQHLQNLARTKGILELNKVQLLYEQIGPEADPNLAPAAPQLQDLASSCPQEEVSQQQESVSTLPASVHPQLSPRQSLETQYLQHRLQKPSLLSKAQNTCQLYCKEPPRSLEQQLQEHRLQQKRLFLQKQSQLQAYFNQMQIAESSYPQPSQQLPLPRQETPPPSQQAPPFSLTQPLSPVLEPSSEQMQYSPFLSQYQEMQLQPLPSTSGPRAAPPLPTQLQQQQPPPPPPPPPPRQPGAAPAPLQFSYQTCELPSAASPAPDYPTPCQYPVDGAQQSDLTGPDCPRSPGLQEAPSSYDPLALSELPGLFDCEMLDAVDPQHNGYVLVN

IC50 [µM]	SMILES
0.108	CNc1nc(C)cc(Nc2cc3cc(-c4cc(OC(F)F)ncc4OCC(C)(C)C#N)ccn3n2)n1 [Example 676, 3-[[6-(difluoromethoxy)-4-[2-[[6-methyl-2-(methylamino)pyrimidin-4-yl]amino]pyrazolo[1,5-a]pyridin-5-yl]-3-pyridyl]oxy]-2,2-dimethyl-propanenitrile]
0.000935	Cc1cc(Nc2cc3cc(-c4cc(OC(F)F)ncc4O[C@H]4CC[C@H](O)CC4)ccn3n2)nc(C)n1 [Example 677, (1r,4r)-4-[[6-(difluoromethoxy)-4-[2-[(2,6-dimethylpyrimidin-4-yl)amino]pyrazolo[1,5-a]pyridin-5-yl]-3-pyridyl]oxy]cyclohexanol]
0.0443	Cc1cc(Nc2cc3cc(-c4cc(OCCO)ncc4OCC(C)(C)C#N)ccn3n2)nc(C)n1 [Example 678, 3-[[4-[2-[(2,6-dimethylpyrimidin-4-yl)amino]pyrazolo[1,5-a]pyridin-5-yl]-6-(2-hydroxyethoxy)-3-pyridyl]oxy]-2,2-dimethyl-propanenitrile]
0.00319	Cc1cc(Nc2cc3cc(-c4cc(OC(F)F)ncc4OCC(C)(C)O)ccn3n2)nc(C)n1 [Example 679, 1-[[6-(difluoromethoxy)-4-[2-[(2,6-dimethylpyrimidin-4-yl)amino]pyrazolo[1,5-a]pyridin-5-yl]-3-pyridyl]oxy]-2-methyl-propan-2-ol]
< 0.000847	Cc1cc(Nc2cc3cc(-c4cc(OC(F)F)ncc4OCC(C)(C)C#N)ccn3n2)nc(N)n1 [Example 682, 3-[[4-[2-[(2-amino-6-methyl-pyrimidin-4-yl)amino]pyrazolo[1,5-a]pyridin-5-yl]-6-(difluoromethoxy)-3-pyridyl]oxy]-2,2-dimethyl-propanenitrile]
0.000974	Cc1cncc(Nc2cc3cc(-c4cc(OC(F)F)ncc4OCC(C)(C)C#N)ccn3n2)n1 [Example 683, 3-[[6-(difluoromethoxy)-4-[2-[(6-methylpyrazin-2-yl)amino]pyrazolo[1,5-a]pyridin-5-yl]-3-pyridyl]oxy]-2,2-dimethyl-propanenitrile]
0.0102	Cc1cc(Nc2cc3cc(-c4cc(OC(F)F)ncc4OCC(C)(C)C#N)ccn3n2)nn(C)c1=O [Example 684, 3-[[6-(difluoromethoxy)-4-[2-[(1,5-dimethyl-6-oxo-pyridazin-3-yl)amino]pyrazolo[1,5-a]pyridin-5-yl]-3-pyridyl]oxy]-2,2-dimethyl-propanenitrile]
0.0312	Cc1cc(Nc2cc3cc(-c4cc(OC(F)F)ncc4OCC(C)(C)C#N)ccn3n2)ncn1 [Example 685, 3-[[6-(difluoromethoxy)-4-[2-[(6-methylpyrimidin-4-yl)amino]pyrazolo[1,5-a]pyridin-5-yl]-3-pyridyl]oxy]-2,2-dimethyl-propanenitrile]
0.0179	Cc1cc(-c2ccn3nc(Nc4cc(C)nc(C)n4)cc3c2)c(OC[C@H]2C[C@H](C#N)C2)cn1 [Example 686, 3-[[4-[2-[(2,6-dimethylpyrimidin-4-yl)amino]pyrazolo[1,5-a]pyridin-5-yl]-6-methyl-3-pyridyl]oxymethyl]cyclobutanecarbonitrile]
0.0759	Cc1cc(-c2ccn3nc(Nc4cc(C)nc(C)n4)cc3c2)c(OC[C@H]2C[C@@H](C#N)C2)cn1 [Example 687, 3-[[4-[2-[(2,6-dimethylpyrimidin-4-yl)amino]pyrazolo[1,5-a]pyridin-5-yl]-6-methyl-3-pyridyl]oxymethyl]cyclobutanecarbonitrile]
0.00121	CC(C)(C#N)COc1cnc(OCC(F)F)cc1-c1ccn2nc(Nc3cccnn3)cc2c1 [Example 688, 3-[[6-(2,2-difluoroethoxy)-4-[2-(pyridazin-3-ylamino)pyrazolo[1,5-a]pyridin-5-yl]-3-pyridyl]oxy]-2,2-dimethyl-propanenitrile]
0.00136	CC(C)(C#N)COc1cnc(OCC(F)F)cc1-c1ccn2nc(Nc3cnccn3)cc2c1 [Example 689, 3-[[6-(2,2-difluoroethoxy)-4-[2-(pyrazin-2-ylamino)pyrazolo[1,5-a]pyridin-5-yl]-3-pyridyl]oxy]-2,2-dimethyl-propanenitrile]
0.00685	Cc1cc(Nc2cc3cc(-c4cc(OCC#N)ncc4O[C@H]4CC[C@H](O)CC4)ccn3n2)nc(C)n1 [Example 690, 2-[[4-[2-[(2,6-dimethylpyrimidin-4-yl)amino]pyrazolo[1,5-a]pyridin-5-yl]-5-(4-hydroxycyclohexoxy)-2-pyridyl]oxy]acetonitrile]
0.001	CC(C)(C#N)COc1cnc(OC(F)F)cc1-c1ccn2nc(Nc3cncc(N)n3)cc2c1 [Example 691, 3-[[4-[2-[(6-aminopyrazin-2-yl)amino]pyrazolo[1,5-a]pyridin-5-yl]-6-(difluoromethoxy)-3-pyridyl]oxy]-2,2-dimethyl-propanenitrile]
0.00228	Cn1cc(Nc2cc3cc(-c4cc(OC(F)F)ncc4OCC(C)(C)C#N)ccn3n2)cn1 [Example 692, 3-[[6-(difluoromethoxy)-4-[2-[(1-methylpyrazol-4-yl)amino]pyrazolo[1,5-a]pyridin-5-yl]-3-pyridyl]oxy]-2,2-dimethyl-propanenitrile]
0.0766	Cc1cc(Nc2cc3cc(-c4cc(OCC(F)F)ncc4OCC(C)(C)C#N)ccn3n2)nn(C)c1=O [Example 693, 3-[[6-(2,2-difluoroethoxy)-4-[2-[(1,5-dimethyl-6-oxo-pyridazin-3-yl)amino]pyrazolo[1,5-a]pyridin-5-yl]-3-pyridyl]oxy]-2,2-dimethyl-propanenitrile]
0.0195	CC(C)(C#N)COc1cnc(OC(F)F)cc1-c1ccn2nc(Nc3cccnc3)cc2c1 [Example 694, 3-[[6-(difluoromethoxy)-4-[2-(3-pyridylamino)pyrazolo[1,5-a]pyridin-5-yl]-3-pyridyl]oxy]-2,2-dimethyl-propanenitrile]
0.117	CC(C)(C#N)COc1cnc(OC(F)F)cc1-c1ccn2nc(Nc3ccc(CN4CCOCC4)cn3)cc2c1 [Example 695, 3-[[6-(difluoromethoxy)-4-[2-[[5-(morpholinomethyl)-2-pyridyl]amino]pyrazolo[1,5-a]pyridin-5-yl]-3-pyridyl]oxy]-2,2-dimethyl-propanenitrile]
0.0821	Cc1cncc(Nc2cc3cc(-c4cc(OCC(F)F)ncc4OCC(C)(C)C#N)ccn3n2)n1 [Example 696, 3-[[6-(2,2-difluoroethoxy)-4-[2-[(6-methylpyrazin-2-yl)amino]pyrazolo[1,5-a]pyridin-5-yl]-3-pyridyl]oxy]-2,2-dimethyl-propanenitrile]
0.021	Cn1nc(Nc2cc3cc(-c4cc(OCC(F)F)ncc4OCC(C)(C)C#N)ccn3n2)ccc1=O [Example 697, 3-[[6-(2,2-difluoroethoxy)-4-[2-[(1-methyl-6-oxo-pyridazin-3-yl)amino]pyrazolo[1,5-a]pyridin-5-yl]-3-pyridyl]oxy]-2,2-dimethyl-propanenitrile]
0.0018	COc1ccnc(Nc2cc3cc(-c4cc(OC(F)F)ncc4OCC(C)(C)C#N)ccn3n2)n1 [Example 698, 3-[[6-(difluoromethoxy)-4-[2-[(4-methoxypyrimidin-2-yl)amino]pyrazolo[1,5-a]pyridin-5-yl]-3-pyridyl]oxy]-2,2-dimethyl-propanenitrile]
0.0111	Cn1cnc(Nc2cc3cc(-c4cc(OC(F)F)ncc4OCC(C)(C)C#N)ccn3n2)n1 [Example 699, 3-[[6-(difluoromethoxy)-4-[2-[(1-methyl-1,2,4-triazol-3-yl)amino]pyrazolo[1,5-a]pyridin-5-yl]-3-pyridyl]oxy]-2,2-dimethyl-propanenitrile]
0.00786	CCNc1nc(Nc2cc3cc(-c4cc(OC(F)F)ncc4OCC(C)(C)C#N)ccn3n2)cc(C(F)(F)F)n1 [Example 700, 3-[[6-(difluoromethoxy)-4-[2-[[2-(ethylamino)-6-(trifluoromethyl)pyrimidin-4-yl]amino]pyrazolo[1,5-a]pyridin-5-yl]-3-pyridyl]oxy]-2,2-dimethyl-propanenitrile]
0.0279	Cc1cc(C(=O)NCC(C)(C)O)cc(Nc2cc3cc(-c4cc(OC(F)F)ncc4OCC(C)(C)C#N)ccn3n2)n1 [Example 701, 2-[[5-[5-(2-cyano-2-methyl-propoxy)-2-(difluoromethoxy)-4-pyridyl]pyrazolo[1,5-a]pyridin-2-yl]amino]-N-(2-hydroxy-2-methyl-propyl)-6-methyl-pyridine-4-carboxamide]
0.00317	Cn1nc(Nc2cc3cc(-c4cc(OC(F)F)ncc4OCC(C)(C)C#N)ccn3n2)ccc1=O [Example 702, 3-[[6-(difluoromethoxy)-4-[2-[(1-methyl-6-oxo-pyridazin-3-yl)amino]pyrazolo[1,5-a]pyridin-5-yl]-3-pyridyl]oxy]-2,2-dimethyl-propanenitrile]
0.0699	Cc1cc(Nc2cc3cc(-c4cc(OC(F)F)ncc4OCC(C)(C)C#N)ccn3n2)nc(C(C)(C)C)n1 [Example 703, 3-[[4-[2-[(2-tert-butyl-6-methyl-pyrimidin-4-yl)amino]pyrazolo[1,5-a]pyridin-5-yl]-6-(difluoromethoxy)-3-pyridyl]oxy]-2,2-dimethyl-propanenitrile]
0.0206	CC(C)(C#N)COc1cnc(OC(F)F)cc1-c1ccn2nc(Nc3cc(N)cnn3)cc2c1 [Example 704, 3-[[4-[2-[(5-aminopyridazin-3-yl)amino]pyrazolo[1,5-a]pyridin-5-yl]-6-(difluoromethoxy)-3-pyridyl]oxy]-2,2-dimethyl-propanenitrile]
0.0306	CC(C)(C#N)COc1cnc(OC(F)F)cc1-c1ccn2nc(Nc3ccnc(N)n3)cc2c1 [Example 705, 3-[[4-[2-[(2-aminopyrimidin-4-yl)amino]pyrazolo[1,5-a]pyridin-5-yl]-6-(difluoromethoxy)-3-pyridyl]oxy]-2,2-dimethyl-propanenitrile]
0.0755	CC(C)(C#N)COc1cnc(OC(F)F)cc1-c1ccn2nc(Nc3cc4n(n3)CCNC4)cc2c1 [Example 706, 3-[[6-(difluoromethoxy)-4-[2-(4,5,6,7-tetrahydropyrazolo[1,5-a]pyrazin-2-ylamino)pyrazolo[1,5-a]pyridin-5-yl]-3-pyridyl]oxy]-2,2-dimethyl-propanenitrile]
